Measured values: US12234258B2, “Timosaponin compounds” (priority 2012, dated 2025)
Read-outs that look alike come from different tables or passages of the source.

Legend:
Format in all cases: cell-based
[1] = system: Aβ1-42 production in SweAPP N2A cells (N2A-APPswe); experiment: Aβ1-42 ELISA of conditioned medium of SweAPP N2A cells; conditions: read-out: IC50 in lowering Aβ42 production
Procedure: Neuro-2A cells expressing Swedish mutants of (“SweAPP N2A cells”) was cultured in minimal essential medium with glutamine (2 mM), pyruvate (2 mM) and fetal bovine serum (10%). Cells were seeded at 6-well plate at 1×10^6 cells/mL and grown overnight. The medium was replaced.
Conditioned medium was diluted with 2 part volume of ELISA diluents. Aβ1-42 concentrations were determined by using human Aβ1-42 ultrasensitive ELISA kit (manufactured by Invitrogen).
Cell culture: Neuro-2A cells expressing Swedish mutants of APP (N2A-APPswe) ENREF 12 was cultured in minimal essential medium with 2 mM glutamine, 2 mM pyruvate and 10% fetal bovine serum. Cells were seeded at 6-well plate at 1×10^6 cells/mL and grown for two days until confluence. The medium was replaced and the test compounds were added at indicated concentrations for 24 hr.
Aβ ELISA: Aβ concentrations in conditioned medium were assayed using ELISA kits for human Aβ40, human Aβ42 (ultrasensitive) (Invitrogen) and Aβ38 (MyBioSource).

[2] = system: HeLa, human cervical carcinoma cells; experiment: Growth of cancer cell lines: HeLa; conditions: mean ± S.D., n = 3; read-out: IC50 against growth of HeLa
[3] = system: NCI-H460, human non-small lung carcinoma cells; experiment: Growth of cancer cell lines: NCI-H460; conditions: mean ± S.D., n = 3; read-out: IC50 against growth of NCI-H460
[4] = system: HepG2, human hepatoma cells; experiment: Growth of cancer cell lines: HepG2; conditions: mean ± S.D., n = 3; read-out: IC50 against growth of HepG2
[5] = system: SW480, human colon adenocarcinoma cells; experiment: Growth of cancer cell lines: SW480; conditions: mean ± S.D., n = 3; read-out: IC50 against growth of SW480
[6] = Table 4, N2A-APPswe cells, mean ± S.D, n ≥ 3

SMILES	IC50 [1, 6]	further results
C[C@@H]1CC[C@@]2(OC1)O[C@H]1C[C@H]3[C@@H]4C[C@H](O)[C@H]5C[C@@H](O)CC[C@]5(C)[C@H]4CC[C@]3(C)[C@H]1[C@@H]2C [5α-H, 6α-OH diosgenin]	> 100 µM	–
C[C@H]1CC[C@@]2(OC1)O[C@H]1C[C@H]3[C@@H]4C[C@H](O)[C@H]5C[C@@H](O)CC[C@]5(C)[C@H]4CC[C@]3(C)[C@H]1[C@@H]2C [5α-H, 6α-OH yamogenin]	> 100 µM	–
C[C@@H]1CC[C@@]2(OC1)O[C@H]1C[C@H]3[C@@H]4C[C@@H](O)[C@@H]5C[C@@H](O)CC[C@]5(C)[C@H]4CC[C@]3(C)[C@H]1[C@@H]2C [5β-H, 6β-OH diosgenin]	> 100 µM	–
C[C@H]1CC[C@@]2(OC1)O[C@H]1C[C@H]3[C@@H]4C[C@@H](O)[C@@H]5C[C@@H](O)CC[C@]5(C)[C@H]4CC[C@]3(C)[C@H]1[C@@H]2C [5β-H, 6β-OH yamogenin]	45 ± 4 µM	–
C[C@@H]1CC[C@@]2(OC1)O[C@H]1C[C@H]3[C@@H]4CC=C5C[C@@H](O[C@@H]6O[C@H](CO)[C@H](O)[C@H](O)[C@H]6O)CC[C@]5(C)[C@H]4CC[C@]3(C)[C@H]1[C@@H]2C [Capsicoside A3]	> 100 µM	–
CC(CO)CCC1OC2CC3C4CCC5CC(O)CCC5(C)C4CCC3(C)C2C1C (centres unmarked) [Dihydrosarsasapogenin]	> 100 µM	–
C[C@@H]1CC[C@@]2(OC1)O[C@H]1C[C@H]3[C@@H]4CC=C5C[C@@H](O)CC[C@]5(C)[C@H]4CC[C@]3(C)[C@H]1[C@@H]2C [Diosgenin]	> 100 µM	–
C[C@H]1CC[C@@]2(OC1)O[C@H]1C[C@H]3[C@@H]4CC[C@@H]5C[C@H](O)CC[C@]5(C)[C@H]4CC[C@]3(C)[C@H]1[C@@H]2C [Episarsasapogenin]	> 100 µM	–
CC(C)[C@@H](C)/C=C/[C@@H](C)[C@H]1CC[C@H]2C3=CC=C4C[C@@H](O)CC[C@]4(C)[C@H]3CC[C@]12C [Ergosterol, reference compound]	> 100 µM	–
C[C@H]1CC[C@@]2(OC1)O[C@H]1C[C@H]3[C@@H]4CC[C@H]5C[C@@H](O)CC[C@]5(C)[C@H]4CC[C@]3(C)[C@H]1[C@@H]2C [Neotigogenin]	–	IC50 ([1]; N2a-APPswe): > 100 µM
C[C@@H]1CC[C@@]2(OC1)O[C@H]1C[C@H]3[C@@H]4CC[C@@H]5CC(=O)CC[C@]5(C)[C@H]4CC[C@]3(C)[C@H]1[C@@H]2C [Sarsasapogenone]	50 ± 5 µM	–
C[C@@H]1CC[C@@]2(OC1)O[C@H]1C[C@H]3[C@@H]4CC[C@@H]5C[C@@H](O)CC[C@]5(C)[C@H]4CC[C@]3(C)[C@H]1[C@@H]2C [Smilagenin]	–	IC50 ([1]; N2a-APPswe): > 100 µM
C[C@@H]1CC[C@@]2(OC1)O[C@H]1C[C@H]3[C@@H]4CC[C@H]5C[C@@H](O)CC[C@]5(C)[C@H]4CC[C@]3(C)[C@H]1[C@@H]2C [Tigogenin]	–	IC50 ([1]; N2a-APPswe): > 100 µM
C[C@@H](CC[C@@]1(O)O[C@H]2C[C@H]3[C@@H]4CC[C@@H]5C[C@@H](O[C@@H]6O[C@H](CO)[C@H](O)[C@H](O)[C@H]6O[C@@H]6O[C@H](CO)[C@@H](O)[C@H](O)[C@H]6O)CC[C@]5(C)[C@H]4CC[C@]3(C)[C@H]2[C@@H]1C)CO[C@@H]1O[C@H](CO)[C@@H](O)[C@H](O)[C@H]1O [Timosaponin BII]	–	IC50 [2]: > 100 µM; IC50 [3]: > 100 µM; IC50 [4]: > 100 µM; IC50 [5]: > 100 µM
CO[C@]1(CC[C@H](C)CO[C@@H]2O[C@H](CO)[C@@H](O)[C@H](O)[C@H]2O)O[C@H]2C[C@H]3[C@@H]4CC[C@@H]5C[C@@H](O[C@@H]6O[C@H](CO)[C@H](O)[C@H](O)[C@H]6O[C@@H]6O[C@H](CO)[C@@H](O)[C@H](O)[C@H]6O)CC[C@]5(C)[C@H]4CC[C@]3(C)[C@H]2[C@@H]1C [Timosaponin BI]	> 100 µM	IC50 [2]: > 100 µM; IC50 [3]: > 100 µM; IC50 [4]: > 100 µM; IC50 [5]: > 100 µM
C[C@H]1CC[C@@]2(OC1)O[C@H]1C[C@H]3[C@@H]4CC=C5C[C@@H](O)CC[C@]5(C)[C@H]4CC[C@]3(C)[C@H]1[C@@H]2C [Yamogenin]	> 100 µM	–
